Assay results: US5229409A, “6-substituted-tetrahydrobenz[cd]indoles” (Eli Lilly and Company, priority 1991, dated 1993)

Assays:
Parameters in all cases: species or system rat (male albino)
[1] = tested on: 5-hydroxyindole acetic acid (5HIAA); experiment: whole brain 5-hydroxyindoleacetic acid (5HIAA) concentration in vivo in rats
Procedure: In another experiment certain compounds of the Examples were evaluated to determine ability to affect the 5-hydroxyindoles serotonin and 5-hydroxyindole acetic acid (5HIAA), and serum corticosterone, in vivo. Male albino rats were injected subcutaneously with an aqueous solution of the compound. The pH of the solution was adjusted as necessary to solubilize the compound. A control of the solution without the test compound was similarly injected into a control animal. […] Trunk blood was collected and allowed to clot. After centrifugation, serum was stored frozen prior to analysis. The whole brain was removed and frozen on dry ice for storage prior to analysis. The serum corticosterone concentration was measured spectrofluorometrically using the procedure of Solem and Brinck-Johnson, "An Evaluation of a Method for Determination of Free Corticosteroids in Minute Quantities of Mouse Plasma", Scand. J. Clin. Lab. Invest., Suppl. 80, p. 1-14 (1965), incorporated herein by reference. 5-Hydroxyindoleacetic acid (5HIAA) concentration in whole brain was measured by liquid chromatography with electrochemical detection as reported by Fuller and Perry, "Effects of Buspirone and its Metabolite, 1-(2-pyrimidinyl)piperazine, on Brain Monoamines and Their Metabolites in Rats", J. Pharmacol. Exp. Ther., 248, p. 50-56 (1989), incorporated herein by reference.

rats = experiment: death of treated rats in the in vivo 5-hydroxyindole/corticosterone experiment; settings: 3 mg/kg s.c.
Procedure: In another experiment certain compounds of the Examples were evaluated to determine ability to affect the 5-hydroxyindoles serotonin and 5-hydroxyindole acetic acid (5HIAA), and serum corticosterone, in vivo. Male albino rats were injected subcutaneously with an aqueous solution of the compound. The pH of the solution was adjusted as necessary to solubilize the compound. A control of the solution without the test compound was similarly injected into a control animal. The rats were decapitated one hour later. Trunk blood was collected and allowed to clot. After centrifugation, serum was stored frozen prior to analysis. The whole brain was removed and frozen on dry ice for storage prior to analysis. The serum corticosterone concentration was measured spectrofluorometrically using the procedure of Solem and Brinck-Johnson, "An Evaluation of a Method for Determination of Free Corticosteroids in Minute Quantities of Mouse Plasma", Scand. J. Clin. Lab. Invest., Suppl. 80, p. 1-14 (1965), incorporated herein by reference. 5-Hydroxyindoleacetic acid (5HIAA) concentration in whole brain was measured by liquid chromatography with electrochemical detection as reported by Fuller and Perry, "Effects of Buspirone and its Metabolite, 1-(2-pyrimidinyl)piperazine, on Brain Monoamines and Their Metabolites in Rats", J. Pharmacol. Exp. Ther., 248, p. 50-56 (1989), incorporated herein by reference.

serotonin = experiment: whole brain serotonin concentration in vivo in rats; settings: 5 hrs before sacrifice
[2] = 0.0003 mg/kg s.c., 1 hour, series 0.0003-0.03 mg/kg
[3] = 0.003 mg/kg s.c., 1 hour, series 0.0003-0.03 mg/kg
[4] = 0.03 mg/kg s.c., 1 hour, series 0.0003-0.03 mg/kg
[5] = 0.03 mg/kg s.c., 1 hour, series 0.03-3 mg/kg
[6] = 0.3 mg/kg s.c., 1 hour, series 0.03-3 mg/kg
[7] = 3 mg/kg s.c., 1 hour, series 0.03-3 mg/kg

SMILES	5HIAA [1, 2] [nmol/g]	5HIAA [1, 3] [nmol/g]	5HIAA [1, 4] [nmol/g]	5HIAA [1, 5] [nmol/g]	5HIAA [1, 6] [nmol/g]	5HIAA [1, 7] [nmol/g]	death of treated rats (rats)	Serotonin (serotonin; 0.1 mg/kg orally) [nmol/g]	Serotonin (serotonin; 0.3 mg/kg orally) [nmol/g]	Serotonin (serotonin; 1 mg/kg orally) [nmol/g]	Serotonin (serotonin; 3 mg/kg orally) [nmol/g]	5HIAA ([1]; 0.1 mg/kg orally, 5 hrs before sacrifice) [nmol/g]	5HIAA ([1]; 0.3 mg/kg orally, 5 hrs before sacrifice) [nmol/g]	5HIAA ([1]; 1 mg/kg orally, 5 hrs before sacrifice) [nmol/g]	5HIAA ([1]; 3 mg/kg orally, 5 hrs before sacrifice) [nmol/g]
CCCN(CCC)C1Cc2c[nH]c3ccc(C(C)=O)c(c23)C1 (racemic) [Example 2, (±)-6-Acetyl-4-(di-n-propylamino)-1,3,4,5-tetrahydrobenz[cd]indole]	2.21 ± 0.05	1.79 ± 0.10	1.95 ± 0.04	1.27 ± 0.01	1.10 ± 0.06	2.04 ± 0.02	–	–	–	–	–	–	–	–	–
CCCN(CCC)[C@H]1Cc2c[nH]c3ccc(C(=O)C(C)C)c(c23)C1 [Example 9, (4R)-(+)-6-(2-methylpropanoyl)-4-(di-n-propylamino)-1,3,4,5-tetrahydrobenz[cd]indole]	2.44 ± 0.06	2.23 ± 0.09	1.82 ± 0.08	1.38 ± 0.02	1.22 ± 0.04	1.38 ± 0.08	–	–	–	–	–	–	–	–	–
CCCN(CCC)[C@H]1Cc2c[nH]c3ccc(C(C)=O)c(c23)C1 [Example 7, (4R)-(+)-6-acetyl-4-(di-n-propylamino)-1,3,4,5-tetrahydrobenz[cd]indole]	1.93 ± 0.07	1.80 ± 0.05	1.34 ± 0.07	1.43 ± 0.02	1.37 ± 0.07	–	dead within one hour	–	–	–	–	–	–	–	–
CCCN(CCC)[C@@H]1Cc2c[nH]c3ccc(C(C)=O)c(c23)C1 [Example 8, (4S)-(-)-6-acetyl-4-(di-n-propylamino)-1,3,4,5-tetrahydrobenz[cd]indole]	1.91 ± 0.08	1.47 ± 0.04	1.59 ± 0.10	1.31 ± 0.06	1.36 ± 0.04	1.35 ± 0.04	–	2.77 ± 0.07	2.47 ± 0.07	2.86 ± 0.07	2.68 ± 0.11	1.67 ± 0.04	1.60 ± 0.07	1.74 ± 0.05	1.31 ± 0.08
